Measured values from patent publication US20240002441A1, “PEPTIDES AND USES THEREOF IN MODULATION OF AMYLOID-BETA PROTEIN DEGRADING PROTEASES” (priority 2020, published 2024).
Where two headings read alike, the source gives them in different places.

Assays:
[1] = test system: HEK293 cells; experiment: Peptide stability study in HEK293 cells, LCMS (Example 4); format: in vitro ADME; conditions: peptide 9 μM, Opti-MEM, 60 min
Experimental: SEQ ID NO:2 was prepared as a C-terminal amidated analogue of SEQ ID NO:1. The stability of SEQ ID NO:1 and SEQ ID NO:2 was assessed in HEK293 and EA.hy926 cells grown in culture and their break down was monitored by LCMS over 60 min using the following procedure.
HEK293 (passage 24) or Ea.hy926 (passage 37) were seeded into tissue-culture-grade 96-well plates at a density of 20,000 cells/well. After 24 hr, cells were washed with PBS and replaced with Opti-MEM reduced serum media containing SEQ ID NO:1 or SEQ ID NO:2 (9 μM). Aliquots of equal volume were taken at T=0 and 60 min. SEQ ID NO:2 was added to control wells having media (no cells) only. Samples were immediately acidified in 0.1% TFA, snap frozen in dry ice and stored in −80° C. until analysed by LCMS.
Samples were analyzed by LC-MS/MS on a Shimadzu Nexera uHPLC (Japan) coupled to a Triple Tof 5600 mass spectrometer (ABSCIEX, Canada) equipped with a duo electrospray ion source. One μL of each extract was injected onto a 2.1 mm×100 mm Zorbax C18 1.8 um column (Agilent) at 200 μL/min. […] SEQ ID NO:1 and SEQ ID NO:2 were quantified using the […] doubly charged molecular ion from m/z 510.270 to 510.325. The data was acquired using Analyst TF 1.6 and quantification was carried out using MultiQuant 2.1.1 software (ABSCIEX, Canada).

[2] = target: T1, IDE (Homo sapiens, UniProt P14735); experiment: QFS assay of Aβ-degrading enzymes: IDE (Example 6); format: biochemical
T1 sequence (P14735 1-1019): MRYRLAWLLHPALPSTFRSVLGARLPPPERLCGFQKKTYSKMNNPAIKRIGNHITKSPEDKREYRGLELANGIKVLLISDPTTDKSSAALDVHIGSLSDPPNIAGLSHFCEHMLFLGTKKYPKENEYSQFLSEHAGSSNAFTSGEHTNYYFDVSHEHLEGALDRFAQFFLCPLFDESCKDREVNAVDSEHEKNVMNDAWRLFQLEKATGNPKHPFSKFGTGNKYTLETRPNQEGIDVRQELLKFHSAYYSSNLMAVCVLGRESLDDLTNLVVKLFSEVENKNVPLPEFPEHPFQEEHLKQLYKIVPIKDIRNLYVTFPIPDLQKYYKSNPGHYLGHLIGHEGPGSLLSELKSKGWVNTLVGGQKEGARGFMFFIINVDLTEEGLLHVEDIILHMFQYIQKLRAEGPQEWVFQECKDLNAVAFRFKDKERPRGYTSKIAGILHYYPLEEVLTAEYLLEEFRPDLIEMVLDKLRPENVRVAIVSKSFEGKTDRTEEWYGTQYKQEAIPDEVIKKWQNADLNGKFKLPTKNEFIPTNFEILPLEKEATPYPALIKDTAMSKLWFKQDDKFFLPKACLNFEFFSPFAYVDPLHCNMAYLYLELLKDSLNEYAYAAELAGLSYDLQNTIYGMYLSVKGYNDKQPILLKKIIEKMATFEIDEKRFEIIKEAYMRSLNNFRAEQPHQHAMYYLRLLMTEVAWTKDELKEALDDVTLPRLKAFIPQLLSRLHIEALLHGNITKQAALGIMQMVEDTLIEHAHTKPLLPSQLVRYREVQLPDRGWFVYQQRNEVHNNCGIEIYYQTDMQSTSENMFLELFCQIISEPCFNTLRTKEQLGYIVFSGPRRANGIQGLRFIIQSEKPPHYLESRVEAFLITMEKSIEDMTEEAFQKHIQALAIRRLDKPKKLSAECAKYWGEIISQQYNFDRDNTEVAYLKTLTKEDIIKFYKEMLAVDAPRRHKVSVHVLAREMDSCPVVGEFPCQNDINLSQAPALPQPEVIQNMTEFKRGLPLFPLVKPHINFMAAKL
Experimental: Plate reader-based enzyme assays were performed using a quenched fluorescent substrate (QFS) in a 96-well format using a SpectraMAX M4 Microplate reader (Molecular Devices). The increase in fluorescence following addition of QFS (40 μM) was taken as evidence of enzyme activity. Fluorescence was monitored over 2 h at 37° C. using κEx=320 nm and λEm=405 nm. Assays were conducted in black 96-well plates. Specific enzyme activity was expressed as a rate of substrate cleavage calculated using a standard curve of 7-methoxy-coumarin-4-acetic acid.
In all plate reader-based enzyme assays using QFS, the reaction rate (μmol of substrate cleaved/min) was calculated using linear regression analysis (GraphPad Prism software version 8.01). The reaction rates calculated were used to generate the enzyme kinetic parameters Vmax and Km through non-linear regression analysis (GraphPad Prism software, version 8.01; Michaelis-Menten equation). Where indicated, enzyme activity in the presence of peptide was expressed as a % of the enzyme alone. Data were expressed as mean±SEM and statistical significance was determined using t-tests or one-way ANOVAs followed by Tukey's post-hoc test. P<0.05 was considered as statistically significant. In all assays conducted using 96-well plates, the reaction mixtures in each well were considered an independent experiment.
SEQ ID NO:2 was assessed in a QFS assay against enzymes NEP, ECE1, ECE2, ACE1, ACE2, IDE and MMP-2 using the method in Example 2 and the following procedure. NEP, ACE1, ECE2 (0.05 ng/μL), ACE2, IDE (0.10 ng/μL), and ECE1 (6.4 ng/μL) were incubated with SEQ ID NO:2 (0.9-26 μM) or scrambled control (9 μM) for 1 h at 37° C. Prior to use, MMP2 (0.50 ng/μL) was activated using p-aminophenylmercuric acetate to a final concentration of 100 μM for 1 h at 37° C. Following activation, MMP2 was incubated with SEQ ID NO:2 for 1 h at 37° C. before adding the appropriate QFS.

[3] = test system: SARS-CoV-2; format: cell-based; conditions: post-treatment, Vero cells; for IL-6 expression compared to PBS: normalised to GAPDH

With “H-SLFELGKMIL-NH2 [SEQ ID NO:2, H2N-SLFELGKMIL-NH2]” the “amount remaining in the medium of HEK293 cells” value [1] was 54%±4%, the “IDE activity compared with respective enzyme alone” value ([2]; peptide 2 μM (FIG. 2c)) was “did not increase” and the “IDE activity compared with respective enzyme alone” value ([2]; peptide 9 μM, significantly less compared with ACE2 and NEP) was “significantly higher”. For the same substance, the “IDE activity, concentration dependence” value ([2]; peptide 0.9-26 μM) was “increased the activity”, the “viral RNA compared to PBS” value ([3]; 200 ng/μL) was “significantly reduced” and the “IL-6 expression compared to PBS” value ([3]; 200 ng/μL) was “significantly reduced”. For the same substance, the “viral RNA compared to PBS” value ([3]; 400 ng/μL) was “significantly reduced”, the “viral titre compared to PBS” value ([3]; 400 ng/μL) was “significantly reduced” and the “IL-6 expression compared to PBS” value ([3]; 400 ng/μL) was “significantly reduced”.
